Experimental data taken from article PMC12693182, “Synthesis and QSAR Studies of Claramine Derivatives, a New Class of Broad-Spectrum Antimicrobial Agents” (Molecules, 2025).
Values after ≈ are worked out from the molar mass of the structure shown.

What was measured:
[1] = system: Chinese hamster Ovary cells (CHO-K1); test: Cytotoxicity assay (WST-1 / Neutral Red); assay type: cell-based; conditions: 24-h incubation; for IC50: Cricetulus griseus, 24 h
Experimental: The cytotoxic activities of compounds were assessed on Chinese hamster Ovary cells (CHO-K1) provided from ATCC-LGC Standards Sarl (Molsheim, France). Cells were maintained in Mc Coy’s 5A (CHO) medium supplemented with 10% bovine calf serum, 2 mM glutamine, and 100 U mL^−1/10 µg mL^−1 penicillin/streptomycin mixtures. For the cytotoxicity experiments, they were seeded in 96-well plates and incubated at 37 °C in humidified atmosphere containing 5% CO2 overnight, then concentrations of compounds were incorporated in triplicate cultures. After a 24-h incubation period at 37 °C, cells were submitted to three successive washes in phosphate buffer saline (PBS) and cell viability was evaluated by two different vital dyes: • i. A first set of cell cultures was incubated in PBS containing 10% WST-1 for 30 min at 37 °C, 5% CO2. Cell viability was evaluated by the assessment of WST-1 absorbance at 450 nm in a microplate spectrophotometer. • ii. A second set of cell cultures was placed into Neutral Red medium (50 μg mL^−1 Neutral Red in complete medium) and incubated for 3 h at 37 °C, 5% CO2. Then the Neutral Red medium was removed and the distaining solution (50% ethanol, 1% acetic acid, 49% distilled water; 50 µL per well) was added into the wells. The plates were shaken for 15–20 min at room temperature in the dark. Cell viability was evaluated by the assessment of absorbance at 540 nm in a microplate spectrophotometer.
Results were expressed as percentages of cell viability about the control (culture medium-only), which corresponded to 100% cell viability. Dose-response curves were calculated by non-linear regression analysis with TableCurve 2D software (V 5.0.1) (Systat Software Inc., San Jose, CA, USA). The Inhibitory Concentration 50% (IC50) was defined as the concentration of compounds that induced a 50% decrease of viable cells.

S. aureus 340 = test: MIC, broth microdilution; assay type: cell-based, Staphylococcus aureus; conditions: Staphylococcus aureus, 340, 24 h
Experimental: (§1) Antimicrobial activity of the compounds was studied by determination of minimal inhibitory concentrations (MIC) according to the NCCLS guidelines M7-A2 using the microbroth dilution methods. The bacteria strains were grown on trypticase soy agar (Becton Dickinson) at 37 °C for 24 h. Inocula were prepared in TCE (tryptone 0.1%, […], wt/vol) by ajusting the turbidity at 623 nm to obtain 1–3 10^5 CFU/mL.
(§2) Antimicrobial activities of the compounds were determined by using a broth microdilution method performed in sterile 96-well microplates. All compounds were solubilized in water at a concentration of 10 mM and were transferred to each microplate well in order to obtain a two-fold serial dilution in 100 µL of broth and 100 µL of inoculum containing 2–6 10^5 CFU of each bacterium were added to each well. Some wells were reserved for positive controls and inoculum viability.

S. aureus ATCC 25923 = test: MIC, broth microdilution; assay type: cell-based, Staphylococcus aureus; conditions: Staphylococcus aureus, ATCC25923, 24 h, ATCC strain
Experimental: as §1, §2

E. coli 1956 = test: MIC, broth microdilution; assay type: cell-based, Escherichia coli; conditions: Escherichia coli, 1956, 24 h
Experimental: as §1, §2

E. coli ATCC 25922 = test: MIC, broth microdilution; assay type: cell-based, Escherichia coli; conditions: ATCC strain; for MIC: Escherichia coli, ATCC25922, 24 h
Experimental: as §1, §2

E. faecalis ATCC29212 = test: MIC, broth microdilution; assay type: cell-based, Enterococccus faecalis; conditions: Enterococcus faecalis, ATCC29212, 24 h, ATCC strain, read-out: MIC E. faecalis 29212
Experimental: as §1, §2

S. intermedius 1051997 = test: MIC, broth microdilution; assay type: cell-based, Staphylococcus intermedius; conditions: Staphylococcus intermedius, 1051997, 24 h, 24 h
Experimental: as §1, §2

P. aeruginosa 1051575 = test: MIC, broth microdilution; assay type: cell-based, Pseudomonas aeruginosa; conditions: Pseudomonas aeruginosa, 1051575, 24 h, 24 h
Experimental: as §1, §2

P. aeruginosa ATCC 27853 = test: MIC, broth microdilution; assay type: cell-based, Pseudomonas aeruginosa; conditions: Pseudomonas aeruginosa, ATCC27853, 24 h, ATCC strain
Experimental: as §1, §2

SMILES	IC50 [1]	MIC (S. aureus 340)	MIC (P. aeruginosa 1051575)	other results
CC(CCC(=O)OCC(F)(F)F)C1CCC2C3CCC4CC(NCCCNCCCCNCCCN)CCC4(C)C3CC(O)C12C (stereo not shown) [Claramine A24]	76 µg/mL (≈ 115 µM)	–	–	–
CC(CCC(=O)OC(C(F)(F)F)C(F)(F)F)C1CCC2C3CCC4CC(NCCCNCCCCNCCCN)CCC4(C)C3CC(O)C12C (stereo not shown) [Claramine A25]	4 µg/mL (≈ 5.5 µM)	–	–	–
CC(C)OC(=O)CCC(C)C1CCC2C3CCC4CC(NCCCN5CCN(CCCN)CC5)CCC4(C)C3CCC12C (stereo not shown) [Claramine E05]	46 µg/mL (≈ 76.5 µM)	8 µg/mL (≈ 13.3 µM)	8 µg/mL (≈ 13.3 µM)	MIC (S. aureus ATCC 25923): 15 µg/mL (≈ 25 µM); MIC (E. coli 1956): 15 µg/mL (≈ 25 µM); MIC (E. coli ATCC 25922): 15 µg/mL (≈ 25 µM); IC50 CHO [1]: 50 µg/mL (≈ 83.2 µM); MIC (E. faecalis ATCC29212): 30 µg/mL (≈ 49.9 µM); MIC (S. intermedius 1051997): 15 µg/mL (≈ 25 µM); MIC (P. aeruginosa ATCC 27853): 60 µg/mL (≈ 99.8 µM)
CC(C)OC(=O)CCC(C)C1CCC2C3C(O)CC4CC(NCCCNCCCCN)CCC4(C)C3CC(O)C12C (stereo not shown) [Claramine B14]	67 µg/mL (≈ 116 µM)	14 µg/mL (≈ 24.2 µM)	7 µg/mL (≈ 12.1 µM)	MIC (S. aureus ATCC 25923): 7 µg/mL (≈ 12.1 µM); MIC (E. coli 1956): 30 µg/mL (≈ 51.9 µM); MIC (E. coli ATCC 25922): 4 µg/mL (≈ 6.92 µM); MIC (E. faecalis ATCC29212): 30 µg/mL (≈ 51.9 µM); MIC (S. intermedius 1051997): 4 µg/mL (≈ 6.92 µM); MIC (P. aeruginosa ATCC 27853): 15 µg/mL (≈ 26 µM)
CC(C)OC(=O)CCC(C)C1CCC2C3C(O)CC4CC(NCCCN5CCN(CCCN)CC5)CCC4(C)C3CC(O)C12C (stereo not shown) [Claramine B16]	260 µg/mL (≈ 411 µM)	16 µg/mL (≈ 25.3 µM)	16 µg/mL (≈ 25.3 µM)	–
CC(CCC(=O)OC(C)(C)C)C1CCC2C3CCC4CC(NCCCNCCCCNCCCN)CCC4(C)C3CC(O)C12C (stereo not shown) [Claramine A22]	> 35 µg/mL	< 4 µg/mL	–	IC50 CHO [1]: 38 µg/mL (≈ 60 µM)
CC(C)OC(=O)CCC(C)C1CCC2C3C(O)CC4CC(NCCN(CCN)CCN)CCC4(C)C3CCC12C (stereo not shown) [Claramine C25]	141 µg/mL (≈ 250 µM)	14 µg/mL (≈ 24.9 µM)	28 µg/mL (≈ 49.7 µM)	–
CCOC(=O)CCC(C)C1CCC2C3CCC4CC(NCCCNCCCCNCCCN)CCC4(C)C3CC(O)C12C (stereo not shown) [Claramine A20]	25 µg/mL (≈ 41.3 µM)	–	–	–
CCCCOC(=O)CCC(C)C1CCC2C3CCC4CC(NCCCNCCCCNCCCN)CCC4(C)C3CC(O)C12C (stereo not shown) [Claramine A21]	4 µg/mL (≈ 6.32 µM)	–	–	–
CC(C)OC(=O)CCC(C)C1CCC2C3C(O)CC4CC(NCCCNCCCN)CCC4(C)C3CC(O)C12C (stereo not shown) [Claramine B15]	113 µg/mL (≈ 200 µM)	14 µg/mL (≈ 24.8 µM)	28 µg/mL (≈ 49.7 µM)	–
COC(=O)CCC(C)C1CCC2C3C(O)CC4CC(NCCCNCCCNCCCN)CCC4(C)C3CCC12C (stereo not shown) [Claramine C02]	22 µg/mL (≈ 38.1 µM)	4 µg/mL (≈ 6.93 µM)	7 µg/mL (≈ 12.1 µM)	MIC (S. aureus ATCC 25923): 4 µg/mL (≈ 6.93 µM); MIC E. coli 25922 (E. coli ATCC 25922; 24 h): 15 µg/mL (≈ 26 µM); MIC (E. faecalis ATCC29212): 15 µg/mL (≈ 26 µM); MIC (S. intermedius 1051997): 2 µg/mL (≈ 3.47 µM); MIC (P. aeruginosa ATCC 27853): 29 µg/mL (≈ 50.3 µM)
CC(C)OC(=O)CCC(C)C1CCC2C3CCC4CC(NCCCNCCCN)CCC4(C)C3CC(O)C12C (stereo not shown) [Claramine A04]	57 µg/mL (≈ 104 µM)	3 µg/mL (≈ 5.48 µM)	14 µg/mL (≈ 25.6 µM)	–
CC(C)OC(=O)CCC(C)C1CCC2C3CCC4CC(NCCCN5CCN(CCCN)CC5)CCC4(C)C3CC(O)C12C (stereo not shown) [Claramine A26]	160 µg/mL (≈ 259 µM)	62 µg/mL (≈ 100 µM)	62 µg/mL (≈ 100 µM)	–
CC(C)OC(=O)CCC(C)C1CCC2C3C(O)CC4CC(NCCN(CCN)CCN)CCC4(C)C3CC(O)C12C (stereo not shown) [Claramine B19]	81 µg/mL (≈ 140 µM)	14 µg/mL (≈ 24.2 µM)	58 µg/mL (≈ 100 µM)	–
